Read-outs that look alike come from different tables or passages of the source. Where only a bound is given, the exact number is not on record here.

In series [1] the test system is differentiated Caco-2 cells. Kind of series: AlamarBlue metabolic activity (viability) assay. The series is classed as cell-based, human. As to conditions: 1-1000 nM toxin, 6-72 h; highest 1000 nM for 72 h. Here is the method: Metabolic activity assay: Cytotoxic effects of OA, DTX1 and DTX2 (1, 10, 20, 40, 100, 200, 500 and 1000 nM) in differentiated Caco-2 cells have been evaluated in a time-dependent manner by the AlamarBlue metabolic activity assay. Incubation with 0.01% Triton X-100 has been used as a positive control of death. Data are shown in Figure 2 as the percent of fluorescence vs. control.
The viability of the Caco-2 cells was measured by Alamar Blue assay, as previously described. Briefly, the Caco-2 cells were seeded onto 96-well plates at an initial concentration of 25,000 cells/mL and cultured until differentiation (21 days) with medium renewal every 2–3 days. Subsequently, cells were treated with increasing concentrations of OA, DTX1, DTX2 and Triton X-100 in the presence of AlamarBlue; then, fluorescence was measured at 6, 8, 10, 12, 24, 48 and 72 hours of incubation using a FL600 Microplate Fluorescence Reader from BioTek (Winooski, VT, USA) at an excitation wavelength of 530 nm and an emission wavelength of 590 nm. Control cells were considered as having 100% viability, and the results are expressed as the percentage of the fluorescence of treated cells versus the fluorescence of control ones.
(In general: Alamar Blue is a resazurin reagent that responds to reducing activity.)

The test system of series [2] is differentiated Caco-2 monolayers. Kind of series: Annexin V-FITC apoptosis detection, confocal imaging. The series is classed as cell-based, human. As to conditions: 100 nM toxin, 24 h. The text has this: Cell membrane integrity assay: Some fluorescent methods allow a non-destructive evaluation of apoptosis by detecting changes in the structure of cell membranes. Annexin V has a high affinity for phosphatidylserine (PS), a phospholipid component located on the inner surface of the lipid bilayer of the cellular plasma membrane. During early apoptosis processes, this PS migrates to the outer portion, becomes exposed on the surface of the cell and can be detected by binding to annexin V labeled with a fluorescent dye. The annexin V assay was carried out in differentiated Caco-2 monolayers that were treated for 24 h with 100 nM of OA, DTX1, DTX2 or vehicle. Incubation with 0.005% Triton X-100 was used as a positive control of cell death and 1 μM staurosporine (STP) and 100 mM sodium butyrate (NaBT) as inductors of cell apoptosis.
To visualize apoptosis by confocal microscopy in the toxin-treated Caco-2 monolayers, an apoptosis detection kit containing annexin V conjugated with FITC from Immunostep (Salamanca, Spain) was used.
Caco-2 cells were seeded on glass coverslips at an initial concentration of 65 × 10^3 cells/mL and cultured for 21 days until differentiation with medium renewal each 2–3 days. On the 21st day, the cell medium was removed, and the monolayers were treated for 24 h with toxins: OA, DTX1, DTX2, vehicle and positive controls of apoptosis and cellular death (staurosporine (STP), sodium butyrate (NaBT) and Triton-X 100). Immediately after the 24 h of incubation, the medium was removed, and the cells were rinsed 3 times with PBS just before the addition of annexin V-FITC in a proportion of 1:100 diluted in the provided binding buffer. After 15 min of incubation in the dark at room temperature, the cells were rinsed again 3 times with PBS and fixed using paraformaldehyde 2% for 15 min at 4 °C. Finally, another 3 washes with PBS were required prior to mounting the coverslips over microscope glass slides with 10 μL of PBS/Glycerol (1:1) and sealing the edges with nail varnish. Confocal imaging was then carried out with a 40× oil immersion objective of a Nikon Eclipse TE2000-E inverted microscope attached to the C1 laser confocal system and EZ-C1 V.2.20 software (Nikon Instruments Europe B.V., Amstelveen, Netherlands). An argon laser was used to excite the annexin V-FITC conjugated protein (λ excitation = […], λ emission = […]).

The test system is the same in series [3]. Briefly: Trans-epithelial electrical resistance (TEER) measurement. The series is classed as cell-based, human. As for the experimental part: We assessed tight junction formation stability through measurements of trans-epithelial electrical resistance (TEER). […] We studied the changes that OA, DTX1 and DTX2 induced in the TEER of the Caco-2 monolayer as a function of time. Differentiated Caco-2 monolayers were incubated with 10, 50 and 100 nM OA, DTX1 and DTX2. TEER was measured immediately before the toxins addition and after 3, 6, 12 and 24 h of incubation with them.
Trans epithelial electric resistance (TEER) was measured across differentiated Caco-2 monolayers, as previously described. The measurements were performed before the treatment with OA, DTX1 and DTX2 (controls), and after each of the incubation times established: 3, 6, 12 and 24 h. Only inserts with TEER higher than 300 Ωcm^2 before the addition of the toxin were used for further testing.

The next series has as its system occludin in Caco-2 cells. Briefly: Confocal microscopy imaging of occludin. The series is classed as cell-based, human. As to conditions: 100 nM toxin, 24 h. As for the experimental part:
Tight-junction strands are composed of membrane integral proteins, occludin being the best-studied member. We evaluate the integrity of such tight-junctions in Caco-2 cells treated with 100 nM OA, DTX1 and DTX2 for 24 h by labeling occludin. […] (Figure 5C).
Alexa Fluor® 488-labeled anti-occludin mouse monoclonal antibody from Invitrogen (Camarillo, CA, USA) was used for visualizing occludin, as previously described.
Briefly, differentiated Caco-2 monolayers were treated with OA, DTX1, DTX2, vehicle and positive controls of apoptosis and cellular death: staurosporine (STP), sodium butyrate (NaBT) and Triton-X 100. Immediately after treatments, the cells were fixed and incubated with the anti-occludin antibody. Each experimental condition was performed in duplicate. Confocal imaging was then carried out with a 40× oil immersion objective of a Nikon Eclipse TE2000-E inverted microscope attached to the C1 laser confocal system and EZ-C1 V.2.20 software (Nikon Instruments Europe B.V., Amstelveen, Netherlands). An Argon laser was used to excite the Alexa Fluor 488 conjugated antibody.

Series [4] concerns differentiated Caco-2 monolayers. Kind of series: Caco-2 permeability assay with microsphere-based immunoassay quantification. The series is classed as in vitro ADME, human. As for the experimental part:
With the aim of evaluating the transport of OA, DTX1 and DTX2 through the cell monolayer, we performed the permeability assays as described in Section 4.7. Caco-2 cell monolayers were incubated with OA, DTX1 and DTX2 for 3, 6, 12 and 24 h. […] According to the results, almost all the OA and DTX2 remain in the apical side (Figure 6 A,D and C,F). […] Likewise, in the absence of a cell monolayer (shown as no cells in Figure 6), all the toxins easily flow over inserts.
The permeability assay was carried out as previously described. During the assays, cell monolayer integrity was evaluated by measuring TEER at the start and end of the experiment. Once the incubation with the toxins (OA, DTX1 and DTX2) finished (after 3, 6, 12 or 24 h), the medium was collected from both the insert (donor compartment/apical side of the monolayer) and the well (receiver compartment/basolateral side of the monolayer) for toxin quantification purposes. Previously, we confirmed that the toxins easily flow over the naked inserts.
OA, DTX1 and DTX2 samples taken from the inserts/donor compartments and wells/receptor compartments where quantified, as previously described by Fraga et al.. In order to consider the cross-reactivity of the analyzed derivatives of the okadaic acid, DTX-1 and DTX-2, calibration curves were prepared using calibration solutions with CRMs of DTX-1 and DTX-2. Therefore, the quantification of DTX-1 and DTX-2 samples collected from permeability assays were quantified against their respective calibration curves.
In general terms: Caco-2 monolayers are a common model of the intestinal barrier.

The subject of another series is PP1. The note with it: cited from earlier work.
A further series has as its system PP2A. The note with it: cited from earlier work; for inhibition equivalency factor (IEF): PP2A.
The subject of series [5] is mice. The note with it: cited from earlier work.
Series [6] relates to mice. As to conditions: cited from earlier work. This is another data set of the same source.

With `C=C1[C@@H](O)[C@@H]2O[C@]3(CC[C@H](/C=C/[C@@H](C)[C@@H]4CC(C)=C[C@@]5(O[C@H](C[C@@](C)(O)C(=O)O)CC[C@H]5O)O4)O3)CC[C@H]2O[C@@H]1[C@@H](O)C[C@H](C)[C@H]1O[C@@]2(CC[C@H]1C)OCCC[C@H]2C` [DTX1, dinophysistoxin-1], the “fluorescence intensity (percent of viability vs. control)” value in series [1] is “did not show any decrease in fluorescence intensity”. Besides, in series [2], the “annexin V-FITC fluorescence (apoptosis)” value was “Lack of fluorescence”. The “change in TEER value” was “significantly decreased” in series [3] (50 nM, 24 h); “decrease was much more noticeable” in series [3] (100 nM, 12 and 24 h). The “TEER values lowered to” value in series [3] (100 nM, 12 h) was 50%; in series [3] (100 nM, 24 h) it was 70%. Moreover, the “concentration disrupting the integrity of Caco-2 monolayers” value in [3] (as stated in abstract) is “above 50 nM”. In addition, in series [3] (for 12 h and above), the “concentration disrupting the monolayer integrity” value was over 100 nM. Also, in the series with occludin in Caco-2 cells, the “occludin distribution / location” value is “fragmented and less uniform staining of occludin”. Also, the “amount of toxin in the basolateral side” value in [4] (100 nM, 24 h) is listed as “increase in the amount of toxin in the basolateral side”. Moreover, in series [4] (100 nM, 24 h), the “initial amount recovered from the basolateral side” value is recorded as about 50%. The “concentration at which toxin significantly crosses the intestinal epithelium” value in series [4] (as stated in abstract) is reported as “above 100 nM”. The “inhibition equivalency factor (IEF), IC50 OA / IC50 analogue” value with PP1 is listed as 0.4–0.9. Also, the “inhibition equivalency factor (IEF)” value is 0.6–0.9 in the series on PP2A (higher IC50 than OA) and 1.6–2.4 in the series on PP2A (lower IC50 than OA). In the series with PP2A (catalytic subunit PP2A), the “dissociation constant, fold lower compared to OA” value was 1.6 fold. In the series with mice [5] (EFSA, based on mice i.p. toxicity, reference OA), the “toxicity equivalent factor (TEF)” value was 1. Besides, the minimum lethal dose in the series with mice [5] (mice, i.p.) is 160 µg/kg. Moreover, the “oral toxicity compared with i.p. injection” value with mice [6] was “only slightly less toxic when administered orally than when given by i.p. injection”. Besides, the lethal oral dose in the series on mice [6] (mice, oral, ref 58) is 300 μg/kg b.w.

Source of the values: PMC3920258, “Experimental Basis for the High Oral Toxicity of Dinophysistoxin 1: A Comparative Study of DSP” (Toxins, 2014).
